Our source for the MIC values is US20250000883A1, “TREATING NEUROINFLAMMATORY CONDITIONS” (AN2 Therapeutics, Inc., priority 2021, published 2025).

Molecules are shown by their SMILES. In brackets after ≈: the same amount, converted by molar mass.

In this experiment the test system is Porphyromonas gingivalis. The experiment can be described thus: Antibacterial MIC testing (agar dilution, anaerobic). In kind it is cell-based. To be noted: supplemented Brucella agar, 44 h, 36° C. How it is done: Epetraborole was placed is a stock solution and stored at −70° C. Serial two-fold dilutions were prepared on the day of testing.
Porphyromonas gingivalis organisms were recovered from clinical samples, identified by standard methods or by partial sequencing of the 16S gene and stored in 20% skim milk at −70° C. All isolates were taken from the freezer and subcultured at least twice on supplemented Brucella agar to ensure good growth. Inocula were prepared by direct suspensions of cells from 48 h cultures into saline or Brucella broth.
For all tested organisms, supplemented Brucella agar deeps were obtained from Anaerobe Systems (Morgan Hill, CA). Defibrinated sheep blood (Hardy Diagnostics, Santa Maria, CA) was frozen and thawed to produce laked blood. On the day of testing, laked blood and the antimicrobial agents were added to the tubes of molten agar before pouring the agar dilution plates. The strains were applied to the plates using a Steers multipronged inoculator for a final concentration of approximately 10^5 cfu/spot. After 44 h incubation at 36° C. in the anaerobic chamber incubator, the plates were examined for growth, and the MICs interpreted.
Background: In agar dilution, organisms are placed on agar that contains the substance at set levels.

A word on the MIC: it is the lowest concentration that inhibits growth of the organism. Low readings indicate greater potency, high ones weaker potency. As to `NC[C@H]1OB(O)c2c(OCCCO)cccc21` [Epetraborole], the MIC amounted to 2 µg/mL (≈ 8.44 µM) (Po. gingivalis clinical isolate RMA# 15676 (Abd-perit.fld)), 2 µg/mL (≈ 8.44 µM) (Po. gingivalis clinical isolate RMA# 15913 (Abd-perit.fld)), 0.125 µg/mL (≈ 0.527 µM) (Po. gingivalis clinical isolate RMA# 16269 (Abd-perit.fld)) and 0.5 µg/mL (≈ 2.11 µM) (Po. gingivalis clinical isolate RMA# 16389 (Abd-perit.fld)).
